Reference: the kinase profiling compilation of Christmann-Franck et al. (2016)

What was measured:
Assay in all cases: KINOMEscan competition binding
Conditions in all cases: compound 10.0 µM
[1] = biological target: STK16 (human) (UniProt O75716)
[2] = biological target: PLK1 (human) (UniProt P53350)
[3] = biological target: DAPK3 (human) (UniProt O43293)
[4] = biological target: STK32B (human) (UniProt Q9NY57)
[5] = biological target: SRMS (human) (UniProt Q9H3Y6)
[6] = biological target: PDGFRA (human) (UniProt P16234)
[7] = biological target: PIP5K1A (human) (UniProt Q99755)
[8] = biological target: TXK (human) (UniProt P42681)
[9] = biological target: PKMYT1 (human) (UniProt Q99640)
[10] = biological target: CDK8 (human) (UniProt P49336)
[11] = biological target: CHEK2 (human) (UniProt O96017)
Sequence of CHEK2 (human) (O96017 whole entry, looked up): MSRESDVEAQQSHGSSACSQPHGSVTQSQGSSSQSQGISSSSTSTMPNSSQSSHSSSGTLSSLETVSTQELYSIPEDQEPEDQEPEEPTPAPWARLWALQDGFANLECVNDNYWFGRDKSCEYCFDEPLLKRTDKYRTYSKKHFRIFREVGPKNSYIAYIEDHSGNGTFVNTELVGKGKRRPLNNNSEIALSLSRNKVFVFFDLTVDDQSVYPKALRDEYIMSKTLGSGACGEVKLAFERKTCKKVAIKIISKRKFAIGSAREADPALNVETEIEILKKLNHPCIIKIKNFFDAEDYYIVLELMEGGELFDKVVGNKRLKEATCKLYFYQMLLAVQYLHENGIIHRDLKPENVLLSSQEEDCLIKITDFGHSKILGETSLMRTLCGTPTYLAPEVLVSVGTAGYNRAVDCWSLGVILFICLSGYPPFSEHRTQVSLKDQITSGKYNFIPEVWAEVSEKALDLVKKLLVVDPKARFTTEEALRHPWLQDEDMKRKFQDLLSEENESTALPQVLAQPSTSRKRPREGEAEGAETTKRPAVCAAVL

[12] = biological target: TEK (human) (UniProt Q02763)
[13] = biological target: PRKD2 (human) (UniProt Q9BZL6)
[14] = biological target: CAMK1G (human) (UniProt Q96NX5)
[15] = biological target: NEK5 (human) (UniProt Q6P3R8)
[16] = biological target: MAP2K4 (human) (UniProt P45985)
[17] = biological target: CLK4 (human) (UniProt Q9HAZ1)
[18] = biological target: RET (human) (UniProt P07949)
[19] = biological target: MKNK1 (human) (UniProt Q9BUB5)
Sequence of MKNK1 (human) (Q9BUB5 whole entry, looked up): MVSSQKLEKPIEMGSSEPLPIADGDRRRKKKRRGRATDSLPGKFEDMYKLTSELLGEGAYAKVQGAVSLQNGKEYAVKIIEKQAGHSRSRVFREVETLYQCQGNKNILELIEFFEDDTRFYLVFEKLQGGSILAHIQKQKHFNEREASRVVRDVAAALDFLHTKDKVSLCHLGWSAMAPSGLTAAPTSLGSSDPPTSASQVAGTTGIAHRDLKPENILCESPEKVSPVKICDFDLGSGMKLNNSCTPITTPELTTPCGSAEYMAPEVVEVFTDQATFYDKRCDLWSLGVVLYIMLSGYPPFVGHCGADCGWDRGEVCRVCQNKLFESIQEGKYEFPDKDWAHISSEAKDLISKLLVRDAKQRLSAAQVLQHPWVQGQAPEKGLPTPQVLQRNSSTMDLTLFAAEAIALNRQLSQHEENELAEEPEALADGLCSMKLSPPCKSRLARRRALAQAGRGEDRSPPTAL

[20] = biological target: PHKG2 (human) (UniProt P15735)
Sequence of PHKG2 (human) (P15735 whole entry, looked up): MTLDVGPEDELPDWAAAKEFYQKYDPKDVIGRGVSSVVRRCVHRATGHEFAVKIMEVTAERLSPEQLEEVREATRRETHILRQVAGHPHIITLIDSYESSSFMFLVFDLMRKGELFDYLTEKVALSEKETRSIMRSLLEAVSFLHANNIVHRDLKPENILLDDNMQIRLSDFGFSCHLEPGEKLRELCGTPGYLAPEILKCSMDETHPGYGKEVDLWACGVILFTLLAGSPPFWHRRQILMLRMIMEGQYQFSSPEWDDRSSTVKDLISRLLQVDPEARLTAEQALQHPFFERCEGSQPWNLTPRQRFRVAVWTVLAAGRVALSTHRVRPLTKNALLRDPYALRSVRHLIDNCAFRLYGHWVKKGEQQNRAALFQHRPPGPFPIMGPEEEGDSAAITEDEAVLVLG

[21] = biological target: NTRK1 (human) (UniProt P04629)
[22] = biological target: PRKG1 (human) (UniProt Q13976)
Sequence of PRKG1 (human) (Q13976 whole entry, looked up): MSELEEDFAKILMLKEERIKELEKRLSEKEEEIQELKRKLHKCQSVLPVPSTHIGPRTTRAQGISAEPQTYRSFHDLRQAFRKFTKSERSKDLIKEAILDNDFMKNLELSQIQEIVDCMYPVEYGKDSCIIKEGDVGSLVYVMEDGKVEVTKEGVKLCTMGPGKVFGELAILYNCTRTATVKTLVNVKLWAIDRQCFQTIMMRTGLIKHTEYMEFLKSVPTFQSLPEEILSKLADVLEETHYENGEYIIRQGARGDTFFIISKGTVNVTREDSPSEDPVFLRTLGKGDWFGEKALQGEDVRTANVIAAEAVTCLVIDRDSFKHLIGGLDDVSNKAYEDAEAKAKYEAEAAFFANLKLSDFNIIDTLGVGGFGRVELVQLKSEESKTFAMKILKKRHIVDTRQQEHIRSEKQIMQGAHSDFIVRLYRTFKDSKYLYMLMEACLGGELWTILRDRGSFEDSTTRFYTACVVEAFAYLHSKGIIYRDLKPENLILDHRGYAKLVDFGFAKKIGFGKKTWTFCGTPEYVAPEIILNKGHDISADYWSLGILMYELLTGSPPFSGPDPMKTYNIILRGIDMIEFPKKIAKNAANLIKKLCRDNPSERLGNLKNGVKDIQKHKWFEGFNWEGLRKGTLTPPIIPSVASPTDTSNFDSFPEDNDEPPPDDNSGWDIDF

[23] = biological target: MAPK7 (human) (UniProt Q13164)
[24] = test system: FLT3 (human), P36888 [N841I]
[25] = biological target: MAPK4 (human) (UniProt P31152)
[26] = biological target: FLT3 (human) (UniProt P36888)
[27] = biological target: STK32C (human) (UniProt Q86UX6)
Sequence of STK32C (human) (Q86UX6 whole entry, looked up): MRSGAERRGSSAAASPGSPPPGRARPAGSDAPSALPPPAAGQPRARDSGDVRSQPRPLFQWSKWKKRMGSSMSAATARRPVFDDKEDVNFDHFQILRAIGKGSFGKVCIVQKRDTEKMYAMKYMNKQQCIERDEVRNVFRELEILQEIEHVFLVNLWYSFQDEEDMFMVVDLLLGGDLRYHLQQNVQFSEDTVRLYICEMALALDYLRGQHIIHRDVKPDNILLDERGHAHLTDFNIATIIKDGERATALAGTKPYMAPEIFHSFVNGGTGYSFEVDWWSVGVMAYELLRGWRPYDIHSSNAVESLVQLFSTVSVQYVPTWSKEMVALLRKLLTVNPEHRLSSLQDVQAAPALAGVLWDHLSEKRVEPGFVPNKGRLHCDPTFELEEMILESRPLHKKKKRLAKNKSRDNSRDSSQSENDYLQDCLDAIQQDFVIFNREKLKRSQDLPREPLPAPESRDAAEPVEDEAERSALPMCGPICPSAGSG

[28] = biological target: PIM2 (human) (UniProt Q9P1W9)
[29] = biological target: CDK9 (human) (UniProt P50750)
Sequence of CDK9 (human) (P50750 whole entry, looked up): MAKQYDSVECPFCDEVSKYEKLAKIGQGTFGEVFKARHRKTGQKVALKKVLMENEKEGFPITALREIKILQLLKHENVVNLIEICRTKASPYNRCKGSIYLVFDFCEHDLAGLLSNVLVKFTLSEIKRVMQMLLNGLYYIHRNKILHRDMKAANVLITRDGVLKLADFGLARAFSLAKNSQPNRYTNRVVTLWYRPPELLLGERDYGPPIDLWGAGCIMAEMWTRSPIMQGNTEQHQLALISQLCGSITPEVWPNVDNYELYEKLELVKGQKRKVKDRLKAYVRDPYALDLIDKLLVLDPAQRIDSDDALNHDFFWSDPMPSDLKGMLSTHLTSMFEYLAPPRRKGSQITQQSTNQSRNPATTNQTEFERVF

[30] = biological target: FER (human) (UniProt P16591)
Sequence of FER (human) (P16591 whole entry, looked up): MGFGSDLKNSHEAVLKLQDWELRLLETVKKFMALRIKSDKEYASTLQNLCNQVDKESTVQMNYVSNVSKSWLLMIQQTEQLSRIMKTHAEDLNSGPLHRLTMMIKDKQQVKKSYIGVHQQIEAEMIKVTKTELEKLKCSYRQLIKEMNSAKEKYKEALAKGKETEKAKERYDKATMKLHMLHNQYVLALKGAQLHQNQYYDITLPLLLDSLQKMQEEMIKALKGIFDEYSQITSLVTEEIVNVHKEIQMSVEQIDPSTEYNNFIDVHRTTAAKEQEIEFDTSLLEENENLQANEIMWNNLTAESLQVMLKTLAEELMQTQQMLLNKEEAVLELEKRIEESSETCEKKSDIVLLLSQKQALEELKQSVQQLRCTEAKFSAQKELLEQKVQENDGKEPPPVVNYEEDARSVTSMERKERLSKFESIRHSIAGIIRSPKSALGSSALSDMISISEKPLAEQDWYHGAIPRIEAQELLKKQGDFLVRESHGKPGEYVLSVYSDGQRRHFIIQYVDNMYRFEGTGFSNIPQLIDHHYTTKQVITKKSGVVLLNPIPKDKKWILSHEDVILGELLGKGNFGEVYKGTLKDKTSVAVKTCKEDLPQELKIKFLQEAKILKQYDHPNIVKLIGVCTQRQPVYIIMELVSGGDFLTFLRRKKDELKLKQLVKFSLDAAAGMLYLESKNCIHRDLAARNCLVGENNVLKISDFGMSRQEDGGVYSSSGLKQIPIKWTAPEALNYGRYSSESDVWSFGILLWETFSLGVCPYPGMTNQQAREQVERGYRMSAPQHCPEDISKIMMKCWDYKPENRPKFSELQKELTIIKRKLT

[31] = biological target: TLK2 (human) (UniProt Q86UE8)
[32] = biological target: MAP2K1 (human) (UniProt Q02750)
[33] = biological target: MAP4K3 (human) (UniProt Q8IVH8)
[34] = biological target: TGFBR1 (human) (UniProt P36897)
[35] = biological target: BMPR1B (human) (UniProt O00238)
[36] = biological target: MYLK (human) (UniProt Q15746)
[37] = biological target: CDK15 (human) (UniProt Q96Q40)
[38] = biological target: TESK1 (human) (UniProt Q15569)
[39] = biological target: LCK (human) (UniProt P06239)
[40] = biological target: ADCK4 (human) (UniProt Q96D53)
Sequence of ADCK4 (human) (Q96D53 whole entry, looked up): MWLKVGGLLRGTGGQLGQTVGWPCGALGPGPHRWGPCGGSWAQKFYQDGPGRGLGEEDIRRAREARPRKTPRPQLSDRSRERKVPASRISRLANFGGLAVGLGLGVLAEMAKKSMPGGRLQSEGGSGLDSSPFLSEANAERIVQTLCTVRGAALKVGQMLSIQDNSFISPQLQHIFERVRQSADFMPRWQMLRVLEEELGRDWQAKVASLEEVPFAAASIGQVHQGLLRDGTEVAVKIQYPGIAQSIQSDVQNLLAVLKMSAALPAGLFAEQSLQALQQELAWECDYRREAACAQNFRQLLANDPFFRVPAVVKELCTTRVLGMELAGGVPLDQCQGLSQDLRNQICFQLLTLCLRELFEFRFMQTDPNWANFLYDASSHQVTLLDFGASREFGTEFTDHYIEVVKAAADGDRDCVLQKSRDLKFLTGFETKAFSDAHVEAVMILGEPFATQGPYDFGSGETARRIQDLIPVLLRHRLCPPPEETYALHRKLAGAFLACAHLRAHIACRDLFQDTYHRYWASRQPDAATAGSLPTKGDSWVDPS

[41] = biological target: FGR (human) (UniProt P09769)

Sequence of SRMS (human) (Q9H3Y6 whole entry, looked up): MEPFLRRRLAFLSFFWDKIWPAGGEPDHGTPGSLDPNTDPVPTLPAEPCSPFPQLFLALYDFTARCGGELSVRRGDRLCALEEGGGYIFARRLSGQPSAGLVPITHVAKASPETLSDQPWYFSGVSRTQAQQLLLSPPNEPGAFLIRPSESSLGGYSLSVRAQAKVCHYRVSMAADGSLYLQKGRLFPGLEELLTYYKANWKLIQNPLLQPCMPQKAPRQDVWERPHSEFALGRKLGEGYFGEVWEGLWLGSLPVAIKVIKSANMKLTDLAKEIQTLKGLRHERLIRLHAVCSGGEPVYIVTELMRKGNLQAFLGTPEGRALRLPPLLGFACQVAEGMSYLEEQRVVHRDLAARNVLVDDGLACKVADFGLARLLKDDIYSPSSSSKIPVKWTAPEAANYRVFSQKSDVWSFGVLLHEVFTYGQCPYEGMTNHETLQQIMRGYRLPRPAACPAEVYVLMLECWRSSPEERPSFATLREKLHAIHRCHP

Compound: C=CC(=O)Nc1cccc(Oc2nc(Nc3ccc(N4CCN(C)CC4)cc3OC)ncc2Cl)c1
- kinase still bound, per cent of control [1]: 27%
- kinase still bound, per cent of control [2]: 16%
- kinase still bound, per cent of control [3]: 7.4%
- kinase still bound, per cent of control [4]: 100%
- kinase still bound, per cent of control [5]: 100%
- kinase still bound, per cent of control [6]: 100%
- kinase still bound, per cent of control [7]: 11%
- kinase still bound, per cent of control [8]: 16%
- kinase still bound, per cent of control [9]: 100%
- kinase still bound, per cent of control [10]: 100%
- kinase still bound, per cent of control [11]: 8.8%
- kinase still bound, per cent of control [12]: 100%
- kinase still bound, per cent of control [13]: 15%
- kinase still bound, per cent of control [14]: 100%
- kinase still bound, per cent of control [15]: 100%
- kinase still bound, per cent of control [16]: 100%
- kinase still bound, per cent of control [17]: 12%
- kinase still bound, per cent of control [18]: 100%
- kinase still bound, per cent of control [19]: 100%
- kinase still bound, per cent of control [20]: 3.5%
- kinase still bound, per cent of control [21]: 100%
- kinase still bound, per cent of control [22]: 100%
- kinase still bound, per cent of control [23]: 4%
- kinase still bound, per cent of control [24]: 0.25%
- kinase still bound, per cent of control [25]: 100%
- kinase still bound, per cent of control [26]: 4.6%
- kinase still bound, per cent of control [27]: 100%
- kinase still bound, per cent of control [28]: 100%
- kinase still bound, per cent of control [29]: 100%
- kinase still bound, per cent of control [30]: 11%
- kinase still bound, per cent of control [31]: 100%
- kinase still bound, per cent of control [32]: 100%
- kinase still bound, per cent of control [33]: 29%
- kinase still bound, per cent of control [34]: 100%
- kinase still bound, per cent of control [35]: 100%
- kinase still bound, per cent of control [36]: 100%
- kinase still bound, per cent of control [37]: 100%
- kinase still bound, per cent of control [38]: 100%
- kinase still bound, per cent of control [39]: 100%
- kinase still bound, per cent of control [40]: 100%
- kinase still bound, per cent of control [41]: 100%

Compound: COc1cc(C(=O)NC2CCN(C)CC2)ccc1Nc1ncc2c(n1)N(C1CCCC1)CCC(=O)N2C(C)C
- kinase still bound, per cent of control [1]: 100%
- kinase still bound, per cent of control [2]: 17%
- kinase still bound, per cent of control [3]: 100%
- kinase still bound, per cent of control [4]: 100%
- kinase still bound, per cent of control [5]: 100%
- kinase still bound, per cent of control [6]: 100%
- kinase still bound, per cent of control [7]: 6.4%
- kinase still bound, per cent of control [8]: 100%
- kinase still bound, per cent of control [9]: 100%
- kinase still bound, per cent of control [10]: 100%
- kinase still bound, per cent of control [11]: 100%
- kinase still bound, per cent of control [12]: 100%
- kinase still bound, per cent of control [13]: 100%
- kinase still bound, per cent of control [14]: 100%
- kinase still bound, per cent of control [15]: 100%
- kinase still bound, per cent of control [16]: 100%
- kinase still bound, per cent of control [17]: 100%
- kinase still bound, per cent of control [18]: 100%
- kinase still bound, per cent of control [19]: 100%
- kinase still bound, per cent of control [20]: 100%
- kinase still bound, per cent of control [21]: 100%
- kinase still bound, per cent of control [22]: 100%
- kinase still bound, per cent of control [23]: 100%
- kinase still bound, per cent of control [24]: 100%
- kinase still bound, per cent of control [25]: 100%
- kinase still bound, per cent of control [26]: 100%
- kinase still bound, per cent of control [27]: 100%
- kinase still bound, per cent of control [28]: 100%
- kinase still bound, per cent of control [29]: 100%
- kinase still bound, per cent of control [30]: 100%
- kinase still bound, per cent of control [31]: 100%
- kinase still bound, per cent of control [32]: 100%
- kinase still bound, per cent of control [33]: 100%
- kinase still bound, per cent of control [34]: 100%
- kinase still bound, per cent of control [35]: 100%
- kinase still bound, per cent of control [36]: 100%
- kinase still bound, per cent of control [37]: 100%
- kinase still bound, per cent of control [38]: 100%
- kinase still bound, per cent of control [39]: 100%
- kinase still bound, per cent of control [40]: 100%
- kinase still bound, per cent of control [41]: 100%

Compound: CCCS(=O)(=O)Nc1ccc(F)c(C(=O)c2c[nH]c3ncc(-c4ccc(Cl)cc4)cc23)c1F
- kinase still bound, per cent of control [1]: 84%
- kinase still bound, per cent of control [2]: 100%
- kinase still bound, per cent of control [3]: 95%
- kinase still bound, per cent of control [4]: 100%
- kinase still bound, per cent of control [5]: 0.05%
- kinase still bound, per cent of control [6]: 0.45%
- kinase still bound, per cent of control [7]: 100%
- kinase still bound, per cent of control [8]: 59%
- kinase still bound, per cent of control [9]: 100%
- kinase still bound, per cent of control [10]: 4.6%
- kinase still bound, per cent of control [11]: 100%
- kinase still bound, per cent of control [12]: 62%
- kinase still bound, per cent of control [13]: 95%
- kinase still bound, per cent of control [14]: 92%
- kinase still bound, per cent of control [15]: 100%
- kinase still bound, per cent of control [16]: 5%
- kinase still bound, per cent of control [17]: 100%
- kinase still bound, per cent of control [18]: 43%
- kinase still bound, per cent of control [19]: 70%
- kinase still bound, per cent of control [20]: 100%
- kinase still bound, per cent of control [21]: 90%
- kinase still bound, per cent of control [22]: 100%
- kinase still bound, per cent of control [23]: 69%
- kinase still bound, per cent of control [25]: 100%
- kinase still bound, per cent of control [26]: 2.4%
- kinase still bound, per cent of control [27]: 100%
- kinase still bound, per cent of control [28]: 96%
- kinase still bound, per cent of control [29]: 100%
- kinase still bound, per cent of control [30]: 54%
- kinase still bound, per cent of control [31]: 94%
- kinase still bound, per cent of control [32]: 10%
- kinase still bound, per cent of control [33]: 56%
- kinase still bound, per cent of control [34]: 53%
- kinase still bound, per cent of control [35]: 67%
- kinase still bound, per cent of control [36]: 91%
- kinase still bound, per cent of control [37]: 96%
- kinase still bound, per cent of control [38]: 29%
- kinase still bound, per cent of control [39]: 1.6%
- kinase still bound, per cent of control [40]: 100%
- kinase still bound, per cent of control [41]: 9.2%
